Data reported in patent US6521568B1, “Plant disease controlling compositions and plant disease controlling method” (Sumitomo Chemical Company, Limited, priority 1999, dated 2003).

Test system: fungi of gray mold of cucumber
Experiment: Controlling effect on gray mold of cucumber, foliar spray on potted cucumber plants
Format: in vivo, Botrytis cinerea
Settings: single compound, 5.0 ppm, 10° C. humid for 6 days after inoculation
Procedure: Plastic pots were filled with sandy loam and sown with cucumber (Sagamihanjiro), followed by growing in a greenhouse for 12 days. A wettable powder of the Compound (I-j) and a wettable powder of procymidone were separately diluted with water, and these dilutions were tank-mixed, then the tank-mixed dilution of the prescribed concentrations of the Compound (I-j) and procymidone was prepared. Said tank-mixed dilution was sprayed to foliage of said cucumber so as to adhere the dilution sufficiently to the surfaces of its leave. After air-drying, a PDA medium including hyphae of the fungi of gray mold of cucumber was placed on the leave surfaces of said cucumber. After inoculation, the plastic pots were placed under a humid environment of 10° C. for 6 days, and then the controlling effect was examined. […]
At the examination, the following evaluation indices was used. The attack rates were calculated with Scheme 1, and then on the basis of the attack rates, the controlling values were calculated with Scheme 2. […]
The controlling effect, which is expected when treatment is carried out by mixing the given two species of active ingredient compounds, is generally calculated according to the following Colby equation described at Scheme 3. […]

Molecule CC12CC1(C)C(=O)N(c1cc(Cl)cc(Cl)c1)C2=O (stereo not shown) [(II), N-(3,5-dichlorophenyl)-1,2-dimethylcyclopropane-1,2-dicarboximide] has an Actual controlling value of 0%.
